According to patent US6528274B1, “Method for the production of sialylated oligosaccharides” (priority 1998, dated 2003):

Key:
[1] = target: viral α2,3-sialyltransferase (Myxoma virus, UniProt Q9YJT3); assay type: biochemical; settings: LacNAc-O-gr = 100; for Relative Rate (2.7 mM): acceptor 2.7 mM, relative rate of sialic acid transfer, 37° C., pH 6.1
Method: Acceptor (54 nmol), CMP-NANA (40 nmol), and CMP-^3H-NANA (150,000-180,000 dpm) were added to a mixture of cell lysate (16 μL), water (3 μL) and 1 μL of assay buffer (250 mM MES, 0.5% Triton CF54, pH 7.0) in a 0.5 mL microfuge tube. Reaction mixtures were incubated at 37° C., diluted with water to 200 μL and loaded onto a C18 Sep-Pak reverse-phase cartridge which had been pre-equilibrated with 20 mL of MeOH and 20 mL of water. The cartridge was washed with 50 mL of water and the product eluted with 4 mL of MeOH into a scintillation vial. The radioactivity of the MeOH eluates were quantitated by liquid scintillation in 10 mL of EcoLite (+) scintillation cocktail (ICN, Montreal, Quebec, Canada) in a Beckman liquid scintillation counter (LS1801).
Acceptor (54 nmol), CMP-NANA (40 nmol), and CMP-^3H-NANA (150,000-180,000 dpm) were added to a mixture of cell lysate (16 μL), water (3 μL) and assay buffer (250 mM MES, 0.5% Triton CF54, pH 6.1) in a 0.5 mL microfuge tube.

[2] = test system: myxoma viral α2,3-sialyl transferase; assay: Transfer of sialic acid (CMP-3H-NANA) to Lewis a and Lewis x oligosaccharide acceptors by viral cell lysate, pH 7.0; assay type: biochemical, myxoma virus; settings: acceptor 54 nmol, 37° C., duplicate experiments
Method: The myxoma viral α2,3-sialyl transferase cell lysate was prepared by a method similar to that set forth in International Patent Application Publication No. WO97/18302^65, which is incorporated herein by reference.
Ten T180 flasks of confluent layers of European rabbit kidney cell (RK13) cells were infected with Brazilian myxoma virus strain, Lausanne (Lu) (ATCC VR-115) isolated Campinas, Brazil, 1949 and Uriarra (Ur) isolated Australian Capital Territory, 1953 (a derivative of Moses strain (ATCC VR-116)). The cells were kept at 37° C. for 24 hours. Twenty-four hours post infection, the cells were detached by scraping and washed with PBS. Cell lysates were prepared by suspension in 20 mL of extraction buffer (50 mM MES, pH 6.1, 0.5% Triton-X100, 100 mM NaCl, 1.5 mM MgCl2, 0.1 mM PMSF, […] aprotinin) at 4° C., for 45 minutes. The lysate was clarified by centrifugation at 2,000 g at 4° C. for 15 minutes. […]
Acceptor (54 nmol), CMP-NANA (40 nmol), and CMP-^3H-NANA (150,000-180,000 dpm) were added to a mixture of cell lysate (16 μL), water (3 μL) and 1 μL of assay buffer (250 mM MES, 0.5% Triton CF54, pH 7.0) in a 0.5 mL microfuge tube. […] The radioactivity of the MeOH eluates were quantitated by liquid scintillation in 10 mL of EcoLite (+) scintillation cocktail (ICN, Montreal, Quebec, Canada) in a Beckman liquid scintillation counter (LS1801). […]

SMILES	Relative Vmax [1]	Relative Rate (2.7 mM) [1]	dpm (radioactive transfer to acceptor) ([2]; Incubation time 170 min., total CMP-NANA 176174)	dpm (radioactive transfer to acceptor) ([2]; Incubation time 90 min., total CMP-NANA 152644)
COC(=O)CCCCCCCCO[C@@H]1O[C@H](CO)[C@@H](O[C@@H]2O[C@H](CO)[C@H](O)[C@H](O)[C@H]2O)[C@H](O)[C@H]1O [Lactose-O-gr]	112	90		
OC[C@H]1O[C@H](Oc2ccccc2)[C@H](O)[C@@H](O)[C@H]1O [Gal-O-phenyl]		<1		
CCCCCCCCO[C@@H]1O[C@H](CO)[C@@H](O)[C@H](O)[C@H]1O [Glc-O-octyl]		<1		
COC(=O)CCCCCCCCO[C@@H]1O[C@H](CO)[C@@H](O[C@@H]2O[C@H](CO)[C@H](O[C@H]3O[C@H](CO)[C@H](O)[C@H](O)[C@H]3O)[C@H](O)[C@H]2O)[C@H](O)[C@H]1O [Galα(1→4)-lactose-O-gr]	17	12		
CCCCCCCCO[C@@H]1O[C@H](CO)[C@@H](O[C@@H]2O[C@H](CO)[C@](C)(O)[C@H](O)[C@H]2O)[C@H](O)[C@H]1O [4′-C-methyl-lactose-octyl]		20		
COC(=O)CCCCCCCCO[C@H]1O[C@H](CO)[C@H](O)[C@H](O[C@@H]2O[C@H](CO)[C@H](O)[C@H](O)[C@H]2O)[C@H]1NC(C)=O [T-disaccharide-O-gr]	51	64		
CCCCCCCCO[C@@H]1O[C@H](CO)[C@@H](O[C@@H]2O[C@H](C(C)(C)O)[C@H](O)[C@H](O)[C@H]2O)[C@H](O)[C@H]1NC(C)=O [6′,6′-C-dimethyl-LacNAc-O-octyl]		17		
COC(=O)CCCCCCCCOC1OC(CO)C(O)C(O)C1NC(C)=O (stereo not drawn) [GlcNAc-O-gr]		<1		
COC(=O)CCCCCCCCO[C@@H]1O[C@H](CO)[C@@H](O[C@@H]2O[C@@H](C)[C@@H](O)[C@@H](O)[C@@H]2O)[C@H](O[C@@H]2O[C@H](CO)[C@H](O)[C@H](O)[C@H]2O)[C@H]1NC(C)=O [Le^a-gr, 8-methoxycarbonyloctyl β-D-galactopyranosyl-(1→3) [α-L-fucopyranosyl-(1→4)]-β-D-2-acetamide-2-deoxy-glucopyranoside]	42	50	4161/4045	
CC(=O)N[C@H]1C(O)O[C@H](CO)[C@@H](O[C@@H]2O[C@H](CO)[C@H](O)[C@H](O)[C@H]2O)[C@@H]1O (stereo partly drawn) [LacNAc-OH]		171		
COC(=O)CCCCCCCCO[C@@H]1O[C@H](CO)[C@@H](O)[C@H](O[C@@H]2O[C@H](CO)[C@H](O)[C@H](O)[C@H]2O)[C@H]1NC(C)=O [Le^c-O-gr]	90	79		
COC(=O)CCCCCCCCO[C@@H]1O[C@H](CO)[C@@H](O[C@@H]2O[C@H](CO)[C@H](O)[C@H](O)[C@H]2O)[C@H](O)[C@H]1NC(C)=O [LacNAc—O-gr]	100	100		
COC(=O)CCCCCCCCOC1OC(CO)C(OC2OC(CO)C(O)C(OC3OC(CO)C(O)C(O)C3O)C2O)C(O)C1NC(C)=O (stereo not drawn) [Galα(1→3)-lacNAc-O-gr]		18		
CCCCCCCCO[C@@H]1O[C@H](CO)[C@@H](O[C@@H]2O[C@H](CO)[C@H](O)[C@](C)(O)[C@H]2O)[C@H](O)[C@H]1O [3′-C-methyl-lactose-octyl]		4.1		
COC(=O)CCCCCCCCO[C@@H]1O[C@H](CO)[C@@H](O[C@@H]2O[C@H](CO)[C@H](O)[C@H](O)[C@H]2O)[C@H](O[C@@H]2O[C@@H](C)[C@@H](O)[C@@H](O)[C@@H]2O)[C@H]1NC(C)=O [Le^x-gr, 8-methoxycarbonyloctyl α-L-fucopyranosyl-(1→3)-[β-D-galactopyranosyl-(1→4)]-β-D-2-acetamide-2-deoxy-glucopyranoside]	30	21		1330/1130
